From EP0940081A1, “Combinations of active agents and disinfectants, preservatives and antiseptics containing same” (Bode Chemie GmbH & Co., priority 1998, dated 1999)
Read-outs that look alike come from different tables or passages of the source.

What was measured:
[1] = Cytotoxicity, cell count of monolayer culture after 24 h exposure; assay type: cell-based, human; details: human, fl amnion cells, 24 h, read-out: Median der Zellzahl
Experimental: (§1) Methodik: Die Zytotoxizität wird an der FL-Linie (menschliche Amnionzellen) geprüft. 2-3 Tage nach der Zelleinsaat werden die Zellen, nachdem sie als einschichtige Zellkultur (Monolayer) vorliegen, nach Medienwechsel für 24 h mit der Prüfsubstanz exponiert, danach abgelöst und die Zellzahl in % zur Kontrolle mit dem Zellzähler Universal 87001 (mölab, Hilden) ermittelt.

Staphylococcus aureus [2] = assay: Agar diffusion test, inhibition zone; assay type: cell-based; details: 24 h
Experimental: Methodik: Decylthiouroniumbromid wurde in abgestuften Konzentrationen im Agar inkorporiert. In Stanzlöcher wurde eine Natriumperboratlösung ohne und mit Aktivierung pipettiert. Die Platten wurden mit Staphylococcus aureus beimpft und 24 h bebrütet. Der entstehende Hemmhof wurde gemessen.

[3] = tested on: FL-Linie (menschliche Amnionzellen); assay: Cytotoxicity, cell count of monolayer culture after 24 h exposure; assay type: cell-based, human; details: Prüfkonzentration 0,005 %; 24 h; 1440 min
Experimental: as §1

Enterococcus faecium = assay: Agar incorporation test, bacteriostatic activity; assay type: cell-based; set-up: key: ⊕⊕: ungehemmtes Wachstum; ⊕: vermindertes Wachstum; -: absolute Hemmung (a. H.); details: 24 h bei 36 °C
Excerpt: (§2) Methodik: Percarbamid und Dodecylthiouroniumchlorid werden unter städigem Durchmischen bis zur vollständigen Homogenisierung erwärmt. Die Prüfung der Kombination im Vergleich zu den entsprechenden Monowirkstoffen auf bakteriostatische Wirksamkeit erfolgte im Agarinkorporationstest. Die zu untersuchenden Substanzen wurden in Wasser standardisierter Härte gelöst. Die Konzentration der Testsubstanzen im Nähragar wurde in einer geometrischen Reihe auf der Basis 2 abgestuft. Zum Beimpfen der Testplatten wurden die im Beispiel 1 genannten Testkeime 6 h in Caseinpepton-Sojamehlpepton-Lösung bebrütet und so in eine logarithmische Wachstumsphase gebracht. Danach wurden die Agarplatten sternförmig sektorenweise mit jeweils einer ? abgestrichenen Öse beimpft. Der Sektor von Proteus mirabilis wurde durch Gräben abgetrennt, um das Schwärmen zu verhindern. Nach 24 h Bebrütung bei 36 °C erfolgte die Bewertung des Bakterienwachstums unter Vergleich mit substanzfreien Kontrollplatten nach folgendem Schema: ++++ ungehemmtes Wachstum +++ geringe Wachstumshemmung (maximal ¾ des Wachstums der Kontrollen) ++ mäßige Wachstumshemmung (maximal ½ des Wachstums der Kontrollen) + starke Wachstumshemmung (maximal ¼ des Wachstums der Kontrollen) Das sog. ? verminderte Wachstum" (v. W.) umfaßt die Bereiche + bis +++ - absolute Hemmung (a. H.)
(§3) In den Tabellen 5, 6 und 7 bedeuten ⊕⊕ ungehemmtes Wachstum und ⊕ vermindertes Wachstum.

Escherichia coli = assay: Agar incorporation test, bacteriostatic activity; assay type: cell-based; set-up: key: ⊕⊕: ungehemmtes Wachstum; ⊕: vermindertes Wachstum; -: absolute Hemmung (a. H.); details: 24 h bei 36 °C
Excerpt: as §2, §3

Staphylococcus aureus [4] = assay: Agar incorporation test, bacteriostatic activity; assay type: cell-based; set-up: key: ⊕⊕: ungehemmtes Wachstum; ⊕: vermindertes Wachstum; -: absolute Hemmung (a. H.); details: 24 h bei 36 °C
Excerpt: as §2, §3

Proteus mirabilis = assay: Agar incorporation test, bacteriostatic activity; assay type: cell-based; set-up: key: ⊕⊕: ungehemmtes Wachstum; ⊕: vermindertes Wachstum; -: absolute Hemmung (a. H.); details: 24 h bei 36 °C
Excerpt: as §2, §3

Pseudomonas aeruginosa = assay: Agar incorporation test, bacteriostatic activity; assay type: cell-based; set-up: key to Bakteriostatische Wirksamkeit (Wachstum): ⊕⊕: ungehemmtes Wachstum; ⊕: vermindertes Wachstum; -: absolute Hemmung (a. H.); details: for Bakteriostatische Wirksamkeit (Wachstum): 24 h bei 36 °C
Excerpt: as §2, §3

[5] = Konzentration in Wasser 0,0015 %
[6] = Konzentration in Wasser 0,003 %
[7] = Konzentration in Wasser 0,006 %
[8] = Konzentration in Wasser 0,012 %
[9] = Konzentration in Wasser 0,025 %

With `CCCCCCCCCCSC(=N)N` [Decylthiouroniumbromid] the viability at 24 h ([1]; Prüfkonzentration 0,0001 %) was 96.8%, the viability at 24 h ([1]; Prüfkonzentration 0,005 %) was 33.5% and the Hemmhofgröße (Staphylococcus aureus [2]; combination: 0,0009% Decylthiouroniumbromid im Agar with Perborat 0,5% im Stanzloch, Aktivator ja) was 19 mm. It also gave a Hemmhofgröße (Staphylococcus aureus [2]; combination: 0,0019% Decylthiouroniumbromid im Agar with Perborat 0,5% im Stanzloch, Aktivator ja) of 24 mm.
In the case of `O=BO[O-].[Na+]` [Perborat, Natriumperborat], the Hemmhofgröße (Staphylococcus aureus [2]; Perboratkonzentration im Stanzloch 0,5%, Aktivator ja, no Decylthiouroniumbromid im Agar) is reported as 13 mm, the Hemmhofgröße (Staphylococcus aureus [2]; Perboratkonzentration im Stanzloch 0,5%, Aktivator nein, no Decylthiouroniumbromid im Agar) is reported as 0 mm and the Hemmhofgröße (Staphylococcus aureus [2]; Perboratkonzentration im Stanzloch 0,25%, Aktivator ja, no Decylthiouroniumbromid im Agar) is reported as 0 mm. The Hemmhofgröße (Staphylococcus aureus [2]; Perboratkonzentration im Stanzloch 0,25%, Aktivator nein, no Decylthiouroniumbromid im Agar) was 0 mm, the Hemmhofgröße (Staphylococcus aureus [2]; Perboratkonzentration im Stanzloch 1%, Aktivator ja, no Decylthiouroniumbromid im Agar) was 15 mm and the Hemmhofgröße (Staphylococcus aureus [2]; Perboratkonzentration im Stanzloch 1%, Aktivator nein, no Decylthiouroniumbromid im Agar) was 11 mm. It also gave a Hemmhofgröße (Staphylococcus aureus [2]; Perboratkonzentration im Stanzloch 2%, Aktivator ja, no Decylthiouroniumbromid im Agar) of 19 mm and a Hemmhofgröße (Staphylococcus aureus [2]; Perboratkonzentration im Stanzloch 2%, Aktivator nein, no Decylthiouroniumbromid im Agar) of 13 mm.
For `CCCCCCCCCCCCSC(=N)N` [Dodecylthiouroniumchlorid], the viability at 24 h ([1]; Prüfkonzentration 0,0001 %) was 101%, the viability at 24 h ([1]; Prüfkonzentration 0,005 %) was 70% and the “Median der Zellzahl” value [3] was 69,9 % der Kontrolle. For the same compound, the “Bakteriostatische Wirksamkeit (Wachstum)” value (Enterococcus faecium; Konzentration in Wasser 0,1 %) was “-”, the “Bakteriostatische Wirksamkeit (Wachstum)” value (Enterococcus faecium; Konzentration in Wasser 0,2 %) was “-” and the “Bakteriostatische Wirksamkeit (Wachstum)” value (Enterococcus faecium; Konzentration in Wasser 0,4 %) was “-”. For the same compound, the “Bakteriostatische Wirksamkeit (Wachstum)” value (Enterococcus faecium; Konzentration in Wasser 0,05 %) was “-”, the “Bakteriostatische Wirksamkeit (Wachstum)” value (Enterococcus faecium; Konzentration in Wasser 0,8 %) was “-” and the “Bakteriostatische Wirksamkeit (Wachstum)” value (Enterococcus faecium; [5]) was “⊕⊕”. The “Bakteriostatische Wirksamkeit (Wachstum)” value (Enterococcus faecium; [6]) was “⊕⊕”, the “Bakteriostatische Wirksamkeit (Wachstum)” value (Enterococcus faecium; [7]) was “⊕” and the “Bakteriostatische Wirksamkeit (Wachstum)” value (Enterococcus faecium; [8]) was “-”. For the same compound, the “Bakteriostatische Wirksamkeit (Wachstum)” value (Enterococcus faecium; [9]) was “-”, the “Bakteriostatische Wirksamkeit (Wachstum)” value (Escherichia coli; Konzentration in Wasser 0,1 %) was “-” and the “Bakteriostatische Wirksamkeit (Wachstum)” value (Escherichia coli; Konzentration in Wasser 0,2 %) was “-”. The “Bakteriostatische Wirksamkeit (Wachstum)” value (Escherichia coli; Konzentration in Wasser 0,4 %) was “-”, the “Bakteriostatische Wirksamkeit (Wachstum)” value (Escherichia coli; Konzentration in Wasser 0,05 %) was “-” and the “Bakteriostatische Wirksamkeit (Wachstum)” value (Escherichia coli; Konzentration in Wasser 0,8 %) was “-”. For the same compound, the “Bakteriostatische Wirksamkeit (Wachstum)” value (Escherichia coli; [5]) was “⊕⊕”, the “Bakteriostatische Wirksamkeit (Wachstum)” value (Escherichia coli; [6]) was “⊕⊕” and the “Bakteriostatische Wirksamkeit (Wachstum)” value (Escherichia coli; [7]) was “⊕⊕”. The “Bakteriostatische Wirksamkeit (Wachstum)” value (Escherichia coli; [8]) was “⊕”, the “Bakteriostatische Wirksamkeit (Wachstum)” value (Escherichia coli; [9]) was “-” and the “Bakteriostatische Wirksamkeit (Wachstum)” value (Staphylococcus aureus [4]; Konzentration in Wasser 0,1 %) was “-”. The “Bakteriostatische Wirksamkeit (Wachstum)” value (Staphylococcus aureus [4]; Konzentration in Wasser 0,2 %) was “-”, the “Bakteriostatische Wirksamkeit (Wachstum)” value (Staphylococcus aureus [4]; Konzentration in Wasser 0,4 %) was “-” and the “Bakteriostatische Wirksamkeit (Wachstum)” value (Staphylococcus aureus [4]; Konzentration in Wasser 0,05 %) was “-”. For the same compound, the “Bakteriostatische Wirksamkeit (Wachstum)” value (Staphylococcus aureus [4]; Konzentration in Wasser 0,8 %) was “-”, the “Bakteriostatische Wirksamkeit (Wachstum)” value (Staphylococcus aureus [4]; [5]) was “⊕⊕” and the “Bakteriostatische Wirksamkeit (Wachstum)” value (Staphylococcus aureus [4]; [6]) was “⊕⊕”. The “Bakteriostatische Wirksamkeit (Wachstum)” value (Staphylococcus aureus [4]; [7]) was “-”, the “Bakteriostatische Wirksamkeit (Wachstum)” value (Staphylococcus aureus [4]; [8]) was “-” and the “Bakteriostatische Wirksamkeit (Wachstum)” value (Staphylococcus aureus [4]; [9]) was “-”. The “Bakteriostatische Wirksamkeit (Wachstum)” value (Proteus mirabilis; Konzentration in Wasser 0,1 %) was “-”, the “Bakteriostatische Wirksamkeit (Wachstum)” value (Proteus mirabilis; Konzentration in Wasser 0,2 %) was “-” and the “Bakteriostatische Wirksamkeit (Wachstum)” value (Proteus mirabilis; Konzentration in Wasser 0,4 %) was “-”. For the same compound, the “Bakteriostatische Wirksamkeit (Wachstum)” value (Proteus mirabilis; Konzentration in Wasser 0,05 %) was “-”, the “Bakteriostatische Wirksamkeit (Wachstum)” value (Proteus mirabilis; Konzentration in Wasser 0,8 %) was “-” and the “Bakteriostatische Wirksamkeit (Wachstum)” value (Proteus mirabilis; [5]) was “⊕⊕”. For the same compound, the “Bakteriostatische Wirksamkeit (Wachstum)” value (Proteus mirabilis; [6]) was “⊕⊕”, the “Bakteriostatische Wirksamkeit (Wachstum)” value (Proteus mirabilis; [7]) was “⊕⊕” and the “Bakteriostatische Wirksamkeit (Wachstum)” value (Proteus mirabilis; [8]) was “⊕”. For the same compound, the “Bakteriostatische Wirksamkeit (Wachstum)” value (Proteus mirabilis; [9]) was “⊕”, the “Bakteriostatische Wirksamkeit (Wachstum)” value (Pseudomonas aeruginosa; Konzentration in Wasser 0,1 %) was “-” and the “Bakteriostatische Wirksamkeit (Wachstum)” value (Pseudomonas aeruginosa; Konzentration in Wasser 0,2 %) was “-”. For the same compound, the “Bakteriostatische Wirksamkeit (Wachstum)” value (Pseudomonas aeruginosa; Konzentration in Wasser 0,4 %) was “-”, the “Bakteriostatische Wirksamkeit (Wachstum)” value (Pseudomonas aeruginosa; Konzentration in Wasser 0,05 %) was “⊕” and the “Bakteriostatische Wirksamkeit (Wachstum)” value (Pseudomonas aeruginosa; Konzentration in Wasser 0,8 %) was “-”. For the same compound, the “Bakteriostatische Wirksamkeit (Wachstum)” value (Pseudomonas aeruginosa; [5]) was “⊕⊕”, the “Bakteriostatische Wirksamkeit (Wachstum)” value (Pseudomonas aeruginosa; [6]) was “⊕⊕” and the “Bakteriostatische Wirksamkeit (Wachstum)” value (Pseudomonas aeruginosa; [7]) was “⊕⊕”. For the same compound, the “Bakteriostatische Wirksamkeit (Wachstum)” value (Pseudomonas aeruginosa; [8]) was “⊕⊕”, the “Bakteriostatische Wirksamkeit (Wachstum)” value (Pseudomonas aeruginosa; [9]) was “⊕⊕” and the “Konzentration, durch die Pseudomonas aeruginosa gehemmt wird (minimale Hemmkonzentration)” value (Pseudomonas aeruginosa; single substance, resistentester Testkeim) was 0,1%.
